Experimental findings from patent publication US20170281575A1, “BLT2 AGONISTS FOR THE TREATMENT OF PAIN” (FRAUNHOFER-GESELLSCHAFT ZUR FÖERDERUNG DER ANGEWANDTEN …, priority 2014, published 2017) are described below.

In assay [1] the test system is TRPV1. The assay is described as follows: Calcium imaging of capsaicin double-stimulated DRG neurons (TRPV1 sensitization). The format is cell-based, murine. As to conditions: for effect on TRPV1 sensitization by LTB4 (100 nM or 1 μM), FIG. 3 legend: U73502 1 μM; for effect on TRPV1 sensitization by LTB4 (100 nM or 1 μM), FIG. 3 legend / effect on TRPV1 sensitization induced by 100 nM LTB4: CAY10583 400 nM; for effect on TRPV1 sensitization induced by 100 nM LTB4: U75302 1 μM, 2 minute pretreatment. As for the experimental part: (A) DRG neurons were double stimulated with capsaicin (200 nM, 15 s each) and incubated with either vehicle or LTB4 (100 nM) for two minutes prior to the second capsaicin stimulation. (B) Dose-dependent difference in ratio between the first and the second capsaicin response using the same protocol as described in (A). Data represent the mean±SEM of the following number of neurons (n=20-86); ANOVA Kruskal-Wallis test; Dunn's multiple comparisons test *p<0.05, ****p<0.0001 student's t-test.
FIG. 3: BLT1 mediates TRPV1-sensitization and BLT2 mediates TRPV1-desensitization by LTB4. (A) DRG neurons were double stimulated with capsaicin (200 nM, 15 s each) and incubated with either vehicle or the indicated compounds for two minutes prior to the second capsaicin stimulation. […] Data represent mean±SEM 20-105 cells. ANOVA Kruskal-Wallis test; Dunn's multiple comparisons test *p<0.05, **p<0.01, ****p<0.0001 student's t-test; n.s. not significant.
FIG. 4: BLT2 activation inhibits […] by EP4 and Bradykinin. (A) DRG neurons were double stimulated with capsaicin (200 nM, 15 s each) and incubated with either the EP4 agonist ONOae329 (500 nM) or with ONOae329 and CAY10583 (400 nM) together for two minutes prior to the second capsaicin stimulation. (B) Difference in ratio between the first and the second capsaicin response using the same protocol as described in panel A. Data represent the mean±SEM of the following number of neurons: 52 (vehicle), 109 (ONOae329), 106 (ONOae329+CAY10583); One-Way ANOVA, Dunn's multiple comparisons test; **p<0.0096. (C+D) same as panel A+B except that 500 nM bradykinin was used for TRPV1 sensitization. Data represent the mean±SEM of the following number of neurons: 33 (vehicle), 83 (bradykinin), 93 (bradykinin+CAY10583); One-Way ANOVA, Holm-Sidak's multiple comparisons test; *p=0.0126
Murine DRGs were dissected from spinal segments and directly transferred to ice cold HBSS with CaCl2 and MgCl2 (Invitrogen, Carsbad, Calif., USA). Next, isolated DRGs were incubated with collagenase/dispase (500 U/ml Collagenase; 2.5 U/ml Dispase) in neurobasal medium containing L-glutamine [2 mM] penicillin (100 U/ml), streptomycin (100 μg/ml), B-27 and gentamicin (50 μg/ml) (all from Invitrogen, Carlsbad, Calif., USA) at 37° C. for 75 min. After removal of the collagenase/dispase-solution, cells were washed twice with neurobasal medium containing 10% FCS and incubated for 10 min with 0.05% trypsin (Invitrogen, Carlsbad, Calif., USA). The washing steps were repeated and the cells were mechanically dissociated with a 1 ml Gilson pipette. Finally, the neurons were plated on poly-l-lysine (Sigma, Deisenhofen, Germany) coated glass cover slips and incubated with neurobasal medium containing L-glutamine [2 mM] penicillin (100 U/ml), streptomycin (100 μg/ml), B-27 and gentamicin (50 μg/ml) over night until assessment by calcium imaging.
Calcium-Imaging experiments were performed as published previously. Briefly, Leica Calcium-imaging setup was used, consisting of a Leica DMI 4000 b inverted microscope equipped with a DFC360 FX (CCD-) camera, Fura-2 filters and an N-Plan 10×/0.25 Ph1 objective (all from Leica Microsystems, Wetzlar, Germany). Images were taken every 2 seconds and processed with the LAS AF-software. For each experiment the inventors chose an area with large cell numbers and monitored 40-110 cells simultaneously. Calcium-Imaging experiments were performed using DRG-neurons 24-48 hours after preparation. […]

Assay [2] deals with mice. The assay is described as follows: Thermal pain thresholds after intraplantar injection (Hargreaves, radiant heat). It is filed as in vivo. As to conditions: CAY10583 10 μl, 5 μM intraplantarly, compared to vehicle. As for the experimental part:
FIG. 5: BLT2 activation decreases thermal pain thresholds in mice. CAY10583 (10 μl, 5 μM) or vehicle was administered intraplantarly. Thermal thresholds were determined at the indicated time points. Data are presented as mean±S.E.M. of 6 animals. Two way ANOVA/Bonferroni *P<0.05, **P<0.005, ****P<0.0005.
All animal experiments were performed according to the recommendations in the Guide for the Care and Use of Laboratory Animals of the National Institutes of Health and approved by the local Ethics Committees for Animal Research (Darmstadt). For all behavioral experiments the inventors used only 6-12 weeks old male C57BL/6N mice purchased from commercial breeding companies (Charles River, Sulzfeld, Germany, Janvier, Le Geneset-Saint-Isle, FR). To compare mechanical thresholds the inventors used age and sex matched littermates as control.
For the determination of mechanical allodynia or thermal hypersensitivity, mice were kept in test cages on an elevated grid for at least 2 hours to allow accommodation. […] The non-injected and injected paws were measured alternately in intervals of 5-10 min. […]

The mark [3] stands for this setting: DRG neurons, capsaicin 200 nM, LY2552833 10 μM.

With `CCCCC(=O)N(Cc1ccc(-c2ccccc2C(=O)O)cc1)c1ccccc1` [CAY10583, 4′-[[(1-oxopentyl)phenylamino]methyl]-[1,1′-biphenyl]-2-carboxylic acid], the “effect on bradykinin-induced sensitization of TRPV1 through PKC” value in assay [1] (DRG neurons, 500 nM bradykinin with CAY10583 400 nM) is reported as “significantly decreased”. For the same compound, in assay [1] (DRG neurons, LY2552833 10 μM), the “effect on TRPV1 sensitization by LTB4 (100 nM or 1 μM), FIG. 3 legend” value (“effect on TRPV1 sensitization by LTB4” for short) is reported as “reduced”. In addition, the “effect by itself on capsaicin-induced TRPV1 activation” value in assay [1] (DRG neurons, capsaicin 200 nM, CAY10583 400 nM alone) is on record as “no effect”. The “effect on TRPV1 sensitization induced by 100 nM LTB4” value (from here on “effect … by 100 nM LTB4”) in assay [1] (setting [3]) was “abolished”. The “effect on ONOae329-induced TRPV1 sensitization” value in assay [1] (murine DRG neurons, ONOae329 500 nM together with CAY10583 400 nM) is given as “abolished”. For the same compound, the thermal pain thresholds entry in assay [2] was “significantly increase”.
For the compound `CCCCC/C=C\C[C@@H](O)/C=C/C=C/C=C\[C@@H](O)CCCC(=O)O` [LTB4, Leucotriene (LT) B4], in assay [1] (DRG neurons, capsaicin 200 nM double stimulation), the “TRPV1 sensitization in DRG neurons, dose dependence, FIG. 1 legend” value is “dose dependently sensitizes TRPV1”. For the same compound, the “enhanced response (TRPV1 sensitization) at higher LTB4 concentrations” value in assay [1] (murine DRG neurons, 200-1000 nM LTB4 prior to second capsaicin stimulation) is listed as “reduced”. Also, the “capsaicin-induced intracellular calcium increases” value in assay [1] (murine DRG neurons, preincubation with 100 nM LTB4 for two minutes prior to second capsaicin (200 nM) stimulation) is given as “doubled”.
Regarding `CCc1cc(C(C)=O)c(O)cc1OCCCCCC(C)(C)c1nn[nH]n1` [LY2552833], in assay [1] (DRG neurons, LY2552833 10 μM), the “effect on TRPV1 sensitization by LTB4” value is on record as “increases TRPV1 sensitization”. Besides, in assay [1] (setting [3]), the “effect on TRPV1 sensitization by 1000 nM LTB4” value is listed as “increased” and the “effect … by 100 nM LTB4” value was “no significant effect”.
As for `COCc1ccccc1CC[C@H](O)/C=C/[C@H]1[C@H](O)CC(=O)[C@@H]1SCCCSCC(=O)O` [ONOae329], the “sensitization of TRPV1 responses to capsaicin” value in assay [1] (murine DRG neurons, pretreatment with ONOae329 500 nM) is “strong sensitization”.
With `CCCCC/C=C\C[C@@H](O)/C=C/c1cccc(C[C@@H](O)CCCCO)n1` [U75302, 6-(6-(3R-hydroxy-1E,5Z-undecadien-1-yl)-2-pyridinyl)-1,5S-hexanediol], the “effect on TRPV1 sensitization by LTB4” value in assay [1] (DRG neurons, LY2552833 10 μM) is on record as “reduced”. Moreover, in assay [1] (setting [3]), the “effect … by 100 nM LTB4” value is on record as “able to abolish”.
